EPA's aquatic toxicity sets

Legend:
Daphnia magna = test: 48 h LC50 (-log10 mol/L); higher = more toxic
Pimephales promelas = test: 96 h LC50 (-log10 mol/L); higher = more toxic
Tetrahymena pyriformis = test: 48 h IGC50 (-log10 mol/L); higher = more toxic

With `Cc1ccc(Cl)cc1Cl` the “48 h LC50 (-log10 mol/L)” value (Daphnia magna) was 5.42.
For `CN1CSC(=S)N(C)C1`, the “48 h LC50 (-log10 mol/L)” value (Daphnia magna) was 5.47.
`Cc1cc(C)cc(C)c1` was tested, and the “48 h LC50 (-log10 mol/L)” value (Daphnia magna) was 4.3.
`CN(C)[C@@H]1C(=O)C(C(N)=O)=C(O)[C@@]2(O)C(=O)C3=C(O)c4c(O)cccc4[C@@](C)(O)[C@H]3C[C@@H]12` was tested, and the “48 h LC50 (-log10 mol/L)” value (Daphnia magna) was 6.43.
`CC1=CCC2CC1C2(C)C` (stereo not given) was tested, and the “48 h LC50 (-log10 mol/L)” value (Daphnia magna) was 3.52.
`CC(C)=CC1C(C(=O)OCc2cccc(Oc3ccccc3)c2)C1(C)C` (stereo not given) was tested, and the “48 h LC50 (-log10 mol/L)” value (Daphnia magna) was 7.69.
With `COCC(=O)N(c1c(C)cccc1C)[C@H](C)C(=O)OC` the “48 h LC50 (-log10 mol/L)” value (Daphnia magna) was 3.54.
`Cc1ncc2n1-c1ccc(Cl)cc1C(c1ccccc1F)=NC2` was tested, and the “48 h LC50 (-log10 mol/L)” value (Daphnia magna) was 6.21.
`Oc1cc(Cl)ccc1Oc1ccc(Cl)cc1Cl` was tested, and the “48 h LC50 (-log10 mol/L)” value (Daphnia magna) was 6.11.
In the case of `CCNc1nc(Cl)nc(NC(C)(C)C#N)n1`, the “48 h LC50 (-log10 mol/L)” value (Daphnia magna) is reported as 6.45.
With `CCc1ccccc1N` the “48 h LC50 (-log10 mol/L)” value (Daphnia magna) was 4.18.
`N#Cc1c(Cl)c(Cl)c(Cl)c(C#N)c1Cl` was tested, and the “48 h LC50 (-log10 mol/L)” value (Daphnia magna) was 6.21.
For `COc1c(O)cc(Cl)c(Cl)c1Cl`, the “48 h LC50 (-log10 mol/L)” value (Daphnia magna) was 5.53.
In the case of `CCCCC`, the “48 h LC50 (-log10 mol/L)” value (Daphnia magna) is reported as 3.87.
With `CC(C)NCC(O)COc1cccc2[nH]c3ccccc3c12` (stereo not given) the “48 h LC50 (-log10 mol/L)” value (Daphnia magna) was 4.3.
`C1=CCCCC1` was tested, and the “48 h LC50 (-log10 mol/L)” value (Daphnia magna) was 3.94.
`CCN(CC)C(=O)SCc1ccc(Cl)cc1` was tested, and the “48 h LC50 (-log10 mol/L)” value (Daphnia magna) was 5.55.
`CC1CCCCC1` was tested, and the “48 h LC50 (-log10 mol/L)” value (Daphnia magna) was 4.82.
`CCC(C)c1ccccc1OC(=O)NC` (stereo not given) was tested, and the “48 h LC50 (-log10 mol/L)” value (Daphnia magna) was 6.32.
`CCOP(=O)(SC(C)CC)N1CCSC1=O` (stereo not given) was tested, and the “48 h LC50 (-log10 mol/L)” value (Daphnia magna) was 5.76.
`Clc1ccc(Cl)c(-c2cc(Cl)c(Cl)cc2Cl)c1` was tested, and the “48 h LC50 (-log10 mol/L)” value (Daphnia magna) was 7.51.
For `C=CC(N)=O`, the “96 h LC50 (-log10 mol/L)” value (Pimephales promelas) was 2.79 and the “48 h IGC50 (-log10 mol/L)” value (Tetrahymena pyriformis) was 2.19.
`CC(O)CO` (stereo not given) was tested, and the “96 h LC50 (-log10 mol/L)” value (Pimephales promelas) was 0.349 and the “48 h IGC50 (-log10 mol/L)” value (Tetrahymena pyriformis) was 0.49.
`O=Cc1ccc(Cl)cc1Cl` was tested, and the “96 h LC50 (-log10 mol/L)” value (Pimephales promelas) was 4.99 and the “48 h IGC50 (-log10 mol/L)” value (Tetrahymena pyriformis) was 4.04.
With `O=Cc1cc(Br)cc(Br)c1O` the “96 h LC50 (-log10 mol/L)” value (Pimephales promelas) was 5.52 and the “48 h IGC50 (-log10 mol/L)” value (Tetrahymena pyriformis) was 4.65.
In the case of `C=CCC#N`, the “96 h LC50 (-log10 mol/L)” value (Pimephales promelas) is reported as 2.57 and the “48 h IGC50 (-log10 mol/L)” value (Tetrahymena pyriformis) is reported as 1.52.
In the case of `c1ccccc1`, the “96 h LC50 (-log10 mol/L)” value (Pimephales promelas) is reported as 3.44 and the “48 h IGC50 (-log10 mol/L)” value (Tetrahymena pyriformis) is reported as 2.88.
For `CC(=O)CC(=O)c1ccccc1`, the “96 h LC50 (-log10 mol/L)” value (Pimephales promelas) was 5.17 and the “48 h IGC50 (-log10 mol/L)” value (Tetrahymena pyriformis) was 3.57.
For `C=C(C)C(=O)OCCO`, the “96 h LC50 (-log10 mol/L)” value (Pimephales promelas) was 2.76 and the “48 h IGC50 (-log10 mol/L)” value (Tetrahymena pyriformis) was 1.92.
For `C=CC(=O)OCC`, the “96 h LC50 (-log10 mol/L)” value (Pimephales promelas) was 4.6 and the “48 h IGC50 (-log10 mol/L)” value (Tetrahymena pyriformis) was 3.52.
`CCCC(C)=O` was tested, and the “96 h LC50 (-log10 mol/L)” value (Pimephales promelas) was 1.84 and the “48 h IGC50 (-log10 mol/L)” value (Tetrahymena pyriformis) was 1.78.
In the case of `CC(=O)CCC=C(C)C`, the “96 h LC50 (-log10 mol/L)” value (Pimephales promelas) is reported as 3.17 and the “48 h IGC50 (-log10 mol/L)” value (Tetrahymena pyriformis) is reported as 2.55.
In the case of `C=CCO`, the “96 h LC50 (-log10 mol/L)” value (Pimephales promelas) is reported as 5.26 and the “48 h IGC50 (-log10 mol/L)” value (Tetrahymena pyriformis) is reported as 1.08.
With `OCC(Br)CBr` (stereo not given) the “96 h LC50 (-log10 mol/L)” value (Pimephales promelas) was 3.49 and the “48 h IGC50 (-log10 mol/L)” value (Tetrahymena pyriformis) was 2.51.
With `N#CCCCCCCC#N` the “96 h LC50 (-log10 mol/L)” value (Pimephales promelas) was 2.41 and the “48 h IGC50 (-log10 mol/L)” value (Tetrahymena pyriformis) was 2.23.
In the case of `Oc1ccccc1O`, the “96 h LC50 (-log10 mol/L)” value (Pimephales promelas) is reported as 4.29 and the “48 h IGC50 (-log10 mol/L)” value (Tetrahymena pyriformis) is reported as 3.75.
With `C=CCN=C=S` the “96 h LC50 (-log10 mol/L)” value (Pimephales promelas) was 6.06 and the “48 h IGC50 (-log10 mol/L)” value (Tetrahymena pyriformis) was 5.06.
In the case of `Oc1c(I)cc(I)cc1I`, the “96 h LC50 (-log10 mol/L)” value (Pimephales promelas) is reported as 5.59 and the “48 h IGC50 (-log10 mol/L)” value (Tetrahymena pyriformis) is reported as 5.67.
`O=C(O)CCCCC(=O)O` was tested, and the “96 h LC50 (-log10 mol/L)” value (Pimephales promelas) was 3.18 and the “48 h IGC50 (-log10 mol/L)” value (Tetrahymena pyriformis) was 2.39.
In the case of `NC(=O)c1ccccc1N`, the “96 h LC50 (-log10 mol/L)” value (Pimephales promelas) is reported as 2.54 and the “48 h IGC50 (-log10 mol/L)” value (Tetrahymena pyriformis) is reported as 2.13.
For `Cc1cc(C)c(C#N)c(=O)[nH]1`, the “96 h LC50 (-log10 mol/L)” value (Pimephales promelas) was 2.98 and the “48 h IGC50 (-log10 mol/L)” value (Tetrahymena pyriformis) was 2.3.
With `CC1(C)OCC(CO)O1` (stereo not given) the “96 h LC50 (-log10 mol/L)” value (Pimephales promelas) was 0.898 and the “48 h IGC50 (-log10 mol/L)” value (Tetrahymena pyriformis) was 1.21.
With `C#CC(C)O` (stereo not given) the “96 h LC50 (-log10 mol/L)” value (Pimephales promelas) was 3.78 and the “48 h IGC50 (-log10 mol/L)” value (Tetrahymena pyriformis) was 2.6.
With `CCCCCCCCBr` the “96 h LC50 (-log10 mol/L)” value (Pimephales promelas) was 5.36 and the “48 h IGC50 (-log10 mol/L)” value (Tetrahymena pyriformis) was 4.87.
In the case of `Cc1ccncc1`, the “96 h LC50 (-log10 mol/L)” value (Pimephales promelas) is reported as 2.36 and the “48 h IGC50 (-log10 mol/L)” value (Tetrahymena pyriformis) is reported as 2.12.
`O=[N+]([O-])c1cc([N+](=O)[O-])c(Cl)cc1Cl` was tested, and the “96 h LC50 (-log10 mol/L)” value (Pimephales promelas) was 6.78 and the “48 h IGC50 (-log10 mol/L)” value (Tetrahymena pyriformis) was 5.72.
`O=Cc1ccc(O)cc1O` was tested, and the “96 h LC50 (-log10 mol/L)” value (Pimephales promelas) was 4.02 and the “48 h IGC50 (-log10 mol/L)” value (Tetrahymena pyriformis) was 3.52.
For `CC(C)(O)CCc1ccccc1`, the “96 h LC50 (-log10 mol/L)” value (Pimephales promelas) was 3.39 and the “48 h IGC50 (-log10 mol/L)” value (Tetrahymena pyriformis) was 2.93.
